Test systems include COLO 205 colon; M14 melanoma; NCI-H460 lung; RXF 393 renal; UACC-62 melanoma; HCT-15 colon; HOP-62 NSCLC; SF-295 CNS; MOLT-4 leukemia; IGROV1 ovarian.
Common to all, as to test: growth of human tumour cells (NCI), 48 h

Structures are written as SMILES. Where “and” joins values, the source holds several entries; their conditions need not be identical. Equal values may be shown once.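 Protocol summary: plate cells (96-well), add compound at 5 concentrations, incubate 48 h, interpolate endpoints linearly. The concentration for 50% growth inhibition is given as GI50. TGI marks complete inhibition of growth.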 Where a SMILES comes first, the peptide text is derived from it. [ ]: non-standard residue; d: D form. The star is where a group is joined. ξ: configuration not given here. dIva = CC[C@@](C)(N)C(=O)O; Aib = CC(C)(N)C(=O)O; ξP = O=C(O)C1CCCN1; βAla = NCCC(=O)O; X5 = OCN* A value given as a limit tells only on which side of the number the result lay.

Take `Nc1cc(N)c2nc(-c3ccccc3)c(Oc3ccc(Cl)c(Cl)c3)nc2c1`: the GI50 in the test with COLO 205 colon is 20.6 µM; with M14 melanoma, 14.1 µM; in the test with NCI-H460 lung, 18.4 µM; in the test with RXF 393 renal it was 25.2 µM; in the test with UACC-62 melanoma, 16.3 µM; in the test with HCT-15 colon, 20 µM. The GI50 was 16.9 µM in the test on HOP-62 NSCLC, 13.9 µM with SF-295 CNS, 6.28 µM with MOLT-4 leukemia and 11.4 µM in the test with IGROV1 ovarian. Besides, the TGI is 67.8 µM with COLO 205 colon; 70.3 µM in the test on M14 melanoma; 71.4 µM in the test with NCI-H460 lung; 85.4 µM in the test on RXF 393 renal; 48.2 µM with UACC-62 melanoma; above 100 µM in the test on HCT-15 colon. For the same molecule, the TGI was 37.9 µM in the test on HOP-62 NSCLC, 31 µM in the test with SF-295 CNS, above 100 µM in the test on MOLT-4 leukemia and 32.2 µM in the test on IGROV1 ovarian.

As for `NC(N)=NC(N)=NCc1ccco1`, the GI50 is above 1250 µM with COLO 205 colon; above 1250 µM with M14 melanoma; 866 µM and 766 µM in the test on NCI-H460 lung; above 1250 µM in the test with RXF 393 renal; 748 µM in the test with UACC-62 melanoma; above 1250 µM in the test on HCT-15 colon. Besides, the GI50 with HOP-62 NSCLC was 780 µM; in the test with SF-295 CNS it was 321 µM; with MOLT-4 leukemia, above 1250 µM; with IGROV1 ovarian, 854 µM. For the same molecule, the TGI with COLO 205 colon, in the test on M14 melanoma, with NCI-H460 lung, in the test on RXF 393 renal, in the test with UACC-62 melanoma and in the test on HCT-15 colon was above 1250 µM throughout. In addition, the TGI in the test on HOP-62 NSCLC, with SF-295 CNS, with MOLT-4 leukemia and in the test with IGROV1 ovarian was above 1250 µM each time.

For the molecule `CNCC1CCn2c(c(C3=C(c4cn(C)c5ccccc45)C(=O)NC3=O)c3ccccc32)C1` (stereo unspecified), the GI50 is 1.47 µM in the test on COLO 205 colon; 3.05 µM with M14 melanoma; 2.91 µM in the test with NCI-H460 lung; 3.09 µM in the test with RXF 393 renal; 3.16 µM with UACC-62 melanoma; 5.04 µM with HCT-15 colon. Also, the GI50 with HOP-62 NSCLC is 3.62 µM; in the test with SF-295 CNS, 2.49 µM; in the test on MOLT-4 leukemia, 1.87 µM; in the test on IGROV1 ovarian it was 4.14 µM. Moreover, the TGI in the test with COLO 205 colon is 4.77 µM; in the test with M14 melanoma, 6.78 µM; in the test on NCI-H460 lung it was 6.55 µM; with RXF 393 renal, 6.78 µM; with UACC-62 melanoma, 6.48 µM; in the test with HCT-15 colon it was 16.5 µM. Further, the TGI with HOP-62 NSCLC is 9.99 µM; in the test on SF-295 CNS, 6.38 µM; in the test with MOLT-4 leukemia, 8.74 µM; in the test on IGROV1 ovarian, 9.9 µM.

`Cc1ccc(NC(=O)CC2C(=O)Nc3ccccc3S2(=O)=O)cc1C` (stereo unspecified): the TGI in the test on M14 melanoma, in the test with NCI-H460 lung, in the test on RXF 393 renal, in the test on UACC-62 melanoma, in the test with HCT-15 colon and with SF-295 CNS was above 100 µM throughout. Moreover, the TGI in the test with MOLT-4 leukemia and in the test on IGROV1 ovarian was above 100 µM in each case.

Take `CC[C@@](C)(NC(=O)[C@H](C)NC(=O)CCNC(=O)C(C)(C)NC(=O)[C@H](C)NC(=O)[C@@H]1CCCN1C(=O)[C@@](C)(CC)NC(=O)[C@H](Cc1ccccc1)NC(=O)C1CCCN1C(=O)C(C)(C)NC(=O)C1CCCN1C(=O)C(C)(C)NC(C)=O)C(=O)NCCC(=O)N[C@@H](CC(C)C)C(=O)NC(C)(C)C(=O)NCCC(=O)N[C@@H](CC(C)C)C(=O)NC(C)(C)C(=O)NC(C)(C)C(=O)N[C@@H](CC(C)C)C(=O)NCCC(=O)NCO` (stereo partly specified) (Ac-[Aib][ξP][Aib][ξP]F[dIva]PA[Aib][βAla]A[dIva][βAla]L[Aib][βAla]L[Aib][Aib]L[βAla]-X5): the GI50 with COLO 205 colon is 0.0681 µM; in the test with M14 melanoma it was 0.188 µM; with NCI-H460 lung it was 0.144 µM; in the test on RXF 393 renal, 0.221 µM; with UACC-62 melanoma, 0.258 µM; in the test with HCT-15 colon it was 0.229 µM. Moreover, the GI50 in the test with HOP-62 NSCLC is 0.18 µM; with SF-295 CNS, 0.0539 µM; with MOLT-4 leukemia, 0.306 µM. Besides, the TGI in the test on COLO 205 colon came out at 0.248 µM; in the test with M14 melanoma, 0.391 µM; in the test on NCI-H460 lung it was 0.381 µM; with RXF 393 renal, 0.436 µM; in the test with UACC-62 melanoma, 0.503 µM; with HCT-15 colon it was 0.446 µM. The TGI in the test on HOP-62 NSCLC was 0.383 µM; in the test on SF-295 CNS, 0.213 µM; in the test on MOLT-4 leukemia, 0.645 µM.

As for `COc1ccc(CNC(=O)c2c(C)n([O-])c3cc(F)c(F)cc3[n+]2=O)cc1`, the GI50 was 11.2 µM in the test on COLO 205 colon; 12 µM with M14 melanoma; 13.1 µM in the test on NCI-H460 lung; 8.2 µM in the test with RXF 393 renal; 15 µM with UACC-62 melanoma; 1.77 µM with HCT-15 colon. In addition, the GI50 in the test on HOP-62 NSCLC is 18.2 µM; in the test on MOLT-4 leukemia, 4.61 µM; in the test on IGROV1 ovarian, 1.9 µM. The TGI was 24.3 µM in the test with COLO 205 colon; 24.4 µM in the test on M14 melanoma; 25.9 µM in the test on NCI-H460 lung; 23.4 µM with RXF 393 renal; 28.5 µM in the test with UACC-62 melanoma; 3.43 µM with HCT-15 colon. Further, the TGI in the test with HOP-62 NSCLC was found to be 32.7 µM; with MOLT-4 leukemia, 21.2 µM; in the test with IGROV1 ovarian, 3.84 µM.

For `O=S1Cc2ccccc2CSS1` (stereo unspecified), the TGI was determined as 27.3 µM with COLO 205 colon; 27 µM in the test on M14 melanoma; 32.9 µM with NCI-H460 lung; 13.8 µM with RXF 393 renal; 26.5 µM with UACC-62 melanoma; 28.1 µM with HCT-15 colon. Besides, the TGI is 37.9 µM with SF-295 CNS, 52.1 µM with MOLT-4 leukemia and above 100 µM in the test on IGROV1 ovarian.

In the case of `O=C(N/N=C/c1cccc(O)c1)c1ccc(C(F)(F)F)nc1Nc1cccc(C(F)(F)F)c1`, the GI50 is 1.44 µM in the test on COLO 205 colon; 1.89 µM in the test with M14 melanoma; 1.74 µM with NCI-H460 lung; 1.13 µM with RXF 393 renal; 1.81 µM in the test with UACC-62 melanoma; 0.881 µM with HCT-15 colon. For the same molecule, the values for the GI50 in the test on HOP-62 NSCLC, in the test on MOLT-4 leukemia and in the test on IGROV1 ovarian were 2.35 µM, 0.43 µM and 2.65 µM, respectively. Besides, the TGI in the test on COLO 205 colon is 2.94 µM; in the test on M14 melanoma it was 5.02 µM; in the test on NCI-H460 lung, 4.52 µM; in the test on RXF 393 renal it was 8.85 µM; in the test on UACC-62 melanoma, 4.12 µM; with HCT-15 colon, 10.1 µM. For the same molecule, the TGI with HOP-62 NSCLC came out at 6.95 µM; in the test with MOLT-4 leukemia, 2.09 µM; in the test on IGROV1 ovarian it was 11.6 µM.
